Results on 2 molecules are retold here after patent publication US7642252B2, “Angiogenesis inhibition by cephalotaxine alkaloids, derivatives, compositions and uses thereof” (Chemgenex Pharmaceuticals, Inc., priority 2002, dated 2010).

Marks after values point to notes of the source that are not given here.

The subject of data set [1] is chorioallantoic membrane (CAM). The experiment in a line: Early chicken chorioallantoic membrane (CAM) assay of angiogenesis. The format is in vivo. The settings on record: for CAM increase (fold): Day 4 to Day 5. How it is done:
Fertilized chicken eggs (HiChick Breeding Co, Kapunda, South Australia) were incubated for three days at 38° C. On Day 3 the embryos were cracked out of the egg and into a cup made of plastic piping, with plastic film stretched over the top to form a hammock for the egg to be suspended in. Two ml of DMEM containing penicillin and streptomycin was added to each cup prior to the egg being added. A Petri dish on the top maintained sterility. Incubation continued in a humidified 37° C. incubator.
On Day 4 the chorioallantoic membrane (CAM) begins to grow, and pictures were taken of each embryo at ×5 to measure the CAM area using image analysis software (Video Pro 32, Leading Edge Pty Ltd, South Australia). Embryos were then grouped according to their CAM area, with a control embryo in each for comparison. There were four matched embryos, treated with 6.25, 12.5 and 25 ng of homoharringtonine. Grouping is critical as in these early developmental stages changes in the CAM growth are dramatic. Relatively small differences in size on Day 4 translate to large differences in the CAM on Day 5, making it impossible to compare treatments. Substances were applied in methylcellulose discs, which were first dried under vacuum overnight. The methylcellulose discs were applied to the top of the CAM, and at the beginning of treatment were at least three to four-fold bigger than the CAM area, meaning treatment covered the entire CAM surface.
On Day 5 skim milk with contrast medium was injected into the CAM. Pictures were then taken at various levels of magnification up to ×63. Quantitative measurements were made from ×5 pictures. CAM area, and vein and artery lengths were measured using image analysis (Video Pro 32, Leading Edge Pty Ltd, South Australia). Relative vessel lengths were then calculated as the total length/CAM area. Statistical analysis was made using SigmaStat and OneWay ANOVA with p<0.05 as the level of significance.
The normal organization of the CAM is uniform, with the major vein draining towards the left, and the artery branches coming over the edge of the top and bottom of the CAM. FIG. 3 schematically illustrates tracing of the vein and artery branches, as performed for the measurement of vessel lengths.
The angiogenic inhibitor, homoharringtonine, was obtained from ChemGenex Therapeutics, Inc. (Menlo Park, Calif.) and was made to the appropriate concentration in sterile water. […] Homoharringtonine was applied at 6.25, 12.5 and 25 ng (11.3, 22.5 and 45 nM) doses, and compared with water treated controls. Homoharringtonine reduced the growth of the CAM to 42% of the control in the 25 ng treated CAM. […] The vein, artery and total vessel lengths were reduced to 15%, 18% and 17% of control, respectively.

The subject of data set [2] is chorioallantoic membrane (CAM). Described as above. The format is in vivo. The settings on record: taxol treated CAM, dose not given.
The mark [3] stands for this setting: 6.25 ng, Day 5, mean ± SEM, n = 6.
[4] abbreviates: 25 ng, Day 5, mean ± SEM, n = 6.

On to `COC(=O)C[C@](O)(CCCC(C)(C)O)C(=O)O[C@@H]1C(OC)=C[C@]23CCCN2CCc2cc4c(cc2[C@H]13)OCO4` [Homoharringtonine, cephalotaxine, 4-methyl-2-hydroxy-2-(4-hydroxy-4-methylpentyl) butanediocate ester], for which the “CAM increase (fold)” value in data set [1] (6.25 ng, mean ± SEM, n = 6) is on record as 7.0 ± 0.4^a fold. Also, in data set [1] (setting [3]), the Artery length is 1573 ± 516 pixels, the Relative artery length is given as 31.6 ± 4.5^ab length/CAM area, the “Relative total vessel length” value is listed as 63.2 ± 7.7^b length/CAM area and the Relative vein length is 31.6 ± 4.6^b length/CAM area. The same molecule displayed a Vein length in data set [1] (setting [3]) of 1482 ± 499 pixels. Besides, the Relative artery length in data set [1] (12.5 ng, Day 5, mean ± SEM, n = 6) is listed as 31.8 ± 3.7^ab length/CAM area. Besides, the Embryo lethality result in data set [1] (25 ng dose) was “killed one of the smaller embryos”. For the same molecule, the “CAM increase (fold)” value in data set [1] (25 ng, mean ± SEM, n = 6) was 4.3 ± 0.7^a fold. In data set [1] (setting [4]), the Artery length was 551 ± 265^a pixels, the Total vessel length is listed as 909 ± 396^a pixels and the Vein length was 359 ± 143^a pixels. Also, in data set [1] (initial doses (higher than 25 ng, not given)), the Embryo lethality entry is “resulted in the death of the embryos”.
As for `CC(=O)O[C@H]1C(=O)[C@@]2(C)[C@H]([C@H](OC(=O)c3ccccc3)[C@]3(O)C[C@H](OC(=O)[C@H](O)[C@@H](NC(=O)c4ccccc4)c4ccccc4)C(C)=C1C3(C)C)[C@]1(OC(C)=O)CO[C@@H]1C[C@@H]2O` [taxol], the “Qualitative changes of CAM at higher magnification (FIG. 5)” value in data set [2] is “diffuse leakage of the red blood cells outside the vessels and the skeletons of larger vessels with no remaining blood flow”.
